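Cultured in 96-well plates, cells were exposed to test compound for 48 hours across five concentrations. TGI: total growth inhibition.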
Legend:
Assay in all cases: NCI tumour cell line growth inhibition, 48 h
[1] = test system: SK-MEL-5 melanoma
[2] = test system: SK-MEL-28 melanoma
[3] = test system: A498 renal
[4] = test system: CCRF-CEM leukemia
[5] = test system: NCI-H23 lung
[6] = test system: OVCAR-5 ovarian
[7] = test system: KM12 colon
[8] = test system: MALME-3M melanoma
[9] = test system: NCI-H460 lung
[10] = test system: SNB-75 CNS
[11] = test system: IGROV1 ovarian
[12] = test system: SK-MEL-2 melanoma
[13] = test system: OVCAR-8 ovarian
[14] = test system: COLO 205 colon
[15] = test system: SR leukemia
[16] = test system: SW-620 colon
[17] = test system: SF-539 CNS
[18] = test system: OVCAR-3 ovarian
[19] = test system: K-562 leukemia
[20] = test system: MOLT-4 leukemia
[21] = test system: DU-145 prostate
[22] = test system: HOP-92 NSCLC
[23] = test system: RPMI-8226 leukemia
[24] = test system: U251 CNS
[25] = test system: TK-10 renal
[26] = test system: PC-3 prostate
[27] = test system: SK-OV-3 ovarian
[28] = test system: MDA-MB-231 breast
[29] = test system: ACHN renal
[30] = test system: CAKI-1 renal
[31] = test system: HCC-2998 colon
[32] = test system: SF-295 CNS
[33] = test system: NCI-H522 lung
[34] = test system: LOX IMVI melanoma
[35] = test system: RXF 393 renal
[36] = test system: HCT-15 colon
[37] = test system: UACC-62 melanoma
[38] = test system: MDA-MB-435
[39] = test system: NCI-H226 lung
[40] = test system: HL-60(TB) leukemia
[41] = test system: EKVX NSCLC
[42] = test system: HOP-62 NSCLC
[43] = test system: OVCAR-4 ovarian
[44] = test system: NCI/ADR-RES ovarian
[45] = test system: MCF7 breast
[46] = test system: UACC-257 melanoma
[47] = test system: BT-549 breast

C=CCN1C(=O)/C(=C/c2cccs2)N=C1SC1OC(COC(=O)c2ccccc2)C(OC(=O)c2ccccc2)C1OC(=O)c1ccccc1 (configuration not stated)
TGI [1]: > 100 µM
TGI [2]: > 100 µM
TGI [3]: > 100 µM
TGI [4]: 80.9 µM
TGI [5]: > 100 µM
TGI [6]: > 100 µM
TGI [7]: > 100 µM
TGI [8]: > 100 µM
TGI [9]: > 100 µM
TGI [10]: > 100 µM
TGI [11]: > 100 µM
TGI [12]: > 100 µM
TGI [13]: > 100 µM
TGI [14]: > 100 µM
TGI [15]: > 100 µM
TGI [16]: > 100 µM
TGI [17]: > 100 µM
TGI [18]: > 100 µM
TGI [19]: > 100 µM
TGI [20]: > 100 µM
TGI [21]: > 100 µM
TGI [22]: > 100 µM
TGI [23]: > 100 µM
TGI [24]: > 100 µM
TGI [25]: > 100 µM
TGI [26]: > 100 µM
TGI [27]: > 100 µM
TGI [28]: > 100 µM
TGI [29]: > 100 µM
TGI [30]: > 100 µM
TGI [31]: > 100 µM
TGI [32]: > 100 µM
TGI [33]: 28 µM
TGI [34]: > 100 µM
TGI [35]: > 100 µM
TGI [36]: > 100 µM
TGI [37]: > 100 µM
TGI [38]: > 100 µM
TGI [39]: > 100 µM
TGI [40]: > 100 µM
TGI [41]: > 100 µM
TGI [42]: > 100 µM
TGI [43]: > 100 µM
TGI [44]: > 100 µM
TGI [45]: > 100 µM
TGI [46]: > 100 µM
TGI [47]: > 100 µM

From PubChem BioAssay (NCI)
